# Square brackets hold non-standard residues; d marks the D form. Peptide text beside a SMILES is read from it. NMeF = CN[C@@H](Cc1ccccc1)C(=O)O
# Experiments:
# [1] = test system: male mice of Kunming strain; assay: Analgesic tolerance test (photothermal tail flick); format: in vivo, mouse
# Description: The mice were injected with the drug in the lateral ventricle of the mice for six consecutive days or in the subcutaneous of the mice for eight consecutive days, and their analgesic tolerance were detected by photothermal tail flick method, and the pharmacological activity of the compounds of the present invention in analgesic tolerance was further explored.
# In male mice of Kunming strain, the drug was injected continuously in the lateral ventricle for six days, once a day, and the effect of continuous injection of drugs on the pain sensation was detected by a photothermal tail flick instrument. The ambient temperature is controlled at 22±1° C., and the experimental animals are free to eat and drink. The test drug was injected into the lateral ventricle of the mouse for 6 consecutive days, 4 μl per injection. The basic tail flick incubation period (3-5 seconds) was measured before the first day of drug injection, and those mice that were too sensitive or dull were discarded. The tail flick incubation period of 5, 10, 15, 20, 30 min after administration on the first and sixth days was recorded in the experiment. To prevent scald on the tail of the mouse, the maximum tail flick incubation period was set as 10 seconds,
# In addition, we further studied the tolerance of subcutaneous administration of compound 9 and morphine in the photothermal tail flick test. The ambient temperature is controlled at 22±1° C., and the experimental animals are free to eat and drink. First, the basic tail flick incubation period (3-5 seconds) of the mice was measured before administration, and then compound 9 or morphine was administered subcutaneously for eight consecutive days. The tail flick incubation period of 10, 15 and 20 minutes after daily administration were recorded. To prevent scald on the tail of the mouse, the maximum tail flick incubation period was set as 10 seconds.
# The experimental data is expressed by MPE (maximum possible effect), MPE (%)=100×[(pain threshold after administration−basal pain threshold)/(10 seconds−basal pain threshold)]. The analgesic tolerance of the drug was compared using the MPE value at the time of maximum analgesic effect of the drug. MPE data was expressed as mean±standard error (Means±S.E.M.). The difference in the analgesic effect of continuous administration in the lateral ventricle of the mice for six days was statistically analyzed by the paired T test, and the difference in the analgesic effect of subcutaneous continuous administration for eight days was analyzed by One-way analysis of variance (one-way ANOVA's Tukey HSD test) for statistics, and ***P<0.001 indicates a significant difference from the analgesic effect of the drug injected on the first day.
# [2] = test system: formalin-induced pain mice; assay: Formalin pain test; format: in vivo, mouse
# Description: The mice were placed in a transparent organic glass box (20×20×30 cm) to accommodate the environment for 10-15 min; a mirror tilted at 30 degrees was placed underneath to facilitate observation of the mouse's foot reaction. After adaptation, the mice were administered in lateral ventricle, intrathecally or intraperitoneally. 5 minutes after administration, 20 μL of a 5% formalin solution was subcutaneously injected into the toes of the right hind paw of the mice, and quickly placed back in the observation box. Timing was started, and the time when the mouse was licking, biting and shaking the injected paw during 0-5 minutes and 15-30 minutes after the injection of the formalin solution were recorded respectively.
# The experimental data was expressed by MPE (maximum possible effect), MPE (%)=100×[(licking paw time in saline group−licking paw time in drug group)/licking paw time in saline group]. The relevant MPE data were expressed as mean±standard error Means±S.E.M.), the data for differences between groups treated with different drug concentrations were analyzed by one-way ANOVA (Bonferroni test in one-way ANOVA) for statistics and analysis, ***P<0.001 represents that there was a significant difference between the MPE value of the drug-treated group and that of the saline group.
# [3] = test system: gastrointestinal movement of male mice of Kunming strain; assay: Gastrointestinal movement in vivo (activated carbon suspension); design: species or system mouse
# Description: Male mice of Kunming strain, weighing 26±2 g. The commonly used toner detection method was used in the detection of astrointestinal movement in vivo. The specific experimental procedure was: before the gastrointestinal movement experiment, the mice were fasted for 16 hours (free drinking during fasting), then the drug was injected through spinal cord or subcutaneously, and after 15 minutes, the activated carbon suspension prepared in advance (a physiological saline suspension containing 5% of activated carbon and 10% gum arabic) was orally perfused into the stomach in a volume of 0.1 ml per 10 g of body weight. After 30 minutes from the perfusion of activated carbon suspension, the animals were sacrificed by cervical dislocation, and then the small intestine of the animal from the pylorus to the cecum was carefully taken out. The total lengths of the small intestine from the pylorus to the cecum and the furthest distance from which the activated carbon suspension moves were measured.
# Gastrointestinal movement test results were evaluated by a percentage of gastrointestinal movement, and the percentage of gastrointestinal movement per mouse was calculated by dividing the moving distance of the activated carbon suspension by the total length of the small intestine. The relevant data were expressed as mean of the percentage of gastrointestinal movement±standard error (Means±S.E.M.), the data for differences between groups treated with different drug concentrations were analyzed by one-way ANOVA (Dunnett test in one-way ANOVA) for statistics and analysis, ***P<0.001 represented that there was a significant difference between the percentage of gastrointestinal movement of the drug-treated group and that of the saline group.
# [4] = test system: blood pressure of Wistar male rats; assay: Blood pressure in anesthetized rats; format: in vivo; details: rat, intrathecal; doses 1, 3, 10, 30 nmol
# From the text: Wistar male rats weighing 200-250 g. After urethane (1.3 g/kg) anesthesia, the trachea was cut to prevent suffocation. The femoral was isolated and a PE-10 artery cannula was inserted in an insertion depth of approximately 2 cm. The arterial cannula was connected to a pressure transducer PT-100, and the PT-100 was connected to a biofunctional experiment BL-420F system to record mean arterial pressure and pulsatile arterial pressure. An additional PE-10 was inserted from the lumbar vertebra L4-L5 and inserted 3 cm along the subarachnoid space up to the spine T12-L1 for intrathecal administration. After the surgery, the rats were allowed to stabilize for 30 min. Then, intrathecal administration of physiological saline or different doses of the drug, the dose of the drug was from small to large, and each dose interval was more than 40 min. Changes in blood pressure of the rats after administration were recorded.
# The experimental results of cardiovascular regulation in rats were expressed as changes in blood pressure, and the relevant data were expressed as mean±standard error (Means±S.E.M.), Differences between groups treated with different drug concentrations were analyzed by one-way ANOVA (Bonferroni test in one-way ANOVA) for data statistics and analysis.
# [5] = lateral ventricle (i.c.v.), listed as compound 9
# [6] = lateral ventricle, from ED50 values
smiles,measurement,setting,value
"C[C@@H](NC(=O)[C@@H](N)Cc1ccc(O)cc1)C(=O)NCC(=O)N(C)[C@@H](Cc1ccccc1)C(=O)NCC(=O)N1CCC[C@H]1C(=O)N[C@@H](CCC(N)=O)C(=O)N[C@@H](CCCNC(=N)N)C(=O)N[C@@H](Cc1ccccc1)C(N)=O [Compound 9, Tyr-D-Ala-Gly-NMe-Phe-Gly-Pro-Gln-Arg-Phe-NH2] (H-Y[dA]G[NMeF]GPQRF-NH2)",analgesic tolerance,"[1]; eight consecutive days subcutaneous, 10 mg/kg",not significantly different from that of the first day
same,analgesia effect compared with morphine,"[1]; tail flick, subcutaneous 10 mg/kg",equivalent to that of an equal dose of morphine
same,ED50 value (95% confidence interval) first phase pain,[2]; intraperitoneal (i.p.),8.855 (7.573 to 10.35) mg/kg
same,ED50 value (95% confidence interval) second phase pain,[2]; intraperitoneal (i.p.),10.92 (9.632 to 12.39) mg/kg
same,ED50 value (95% confidence interval) first phase pain,[2]; intrathecal (i.t.),37.69 (35.53 to 39.99) pmol
same,ED50 value (95% confidence interval) second phase pain,[2]; intrathecal (i.t.),55.04 (51.26 to 59.10) pmol
same,ED50 value (95% confidence interval) first phase pain,[2]; lateral ventricle (i.c.v.),18.8 pmol
same,ED50 value (95% confidence interval) second phase pain,[2]; lateral ventricle (i.c.v.),103.4 pmol
same,ED50 value (95% confidence interval) first phase pain,[2]; [5],18.80 (15.97 to 22.12) pmol
same,ED50 value (95% confidence interval) second phase pain,[2]; [5],103.4 (96.02 to 111.3) pmol
same,"analgesic effect relative to BN-9, first phase pain",[2]; [6],6.3 times
same,"analgesic effect relative to BN-9, second phase pain",[2]; [6],11.0 times
same,percentage of gastrointestinal movement,[3]; 10 mg/kg (compound 9 subcutaneous; morphine positive control),37.10%
same,dose with significant inhibitory effect on gastrointestinal movement,[3]; intrathecal injection,≥ 300 pmol
same,percentage of gastrointestinal movement,"[3]; intrathecal injection, 100 pmol",45.71%
same,percentage of gastrointestinal movement,"[3]; intrathecal injection, 300 pmol",31.40%
same,percentage of gastrointestinal movement,"[3]; intrathecal injection, 500 pmol",21.67%
same,percentage of gastrointestinal movement,"[3]; subcutaneous, 1 mg/kg",47.28%
same,percentage of gastrointestinal movement,"[3]; subcutaneous, 30 mg/kg",33.12%
same,percentage of gastrointestinal movement,"[3]; subcutaneous, 100 mg/kg",24.14%
same,dose producing a significant blood pressure-lowering effect,[4],more than 1 nmol

# Source: patent US11167006B2 (Shanghai Tianci Life Science Development Co., Ltd., priority 2016, dated 2021)
